In PubChem BioAssay (NCI) one finds TGI and GI50 data, which are given here for five compounds.

Among the test systems are A549 NSCLC; COLO 205 colon; HOP-62 NSCLC; LOX IMVI melanoma; MALME-3M melanoma; NCI/ADR-RES ovarian; RXF 393 renal; SF-539 CNS; T-47D breast; UACC-257 melanoma.
Assay in all cases: growth of human tumour cells (NCI), 48 h

Structures are written as SMILES.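 How tested: cells in 96-well plates exposed to compound for 48 hours at five concentrations. GI50 is the concentration that inhibits growth by half. TGI: concentration producing complete growth inhibition.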

Consider `Cc1nc2[nH]ncn2c(=O)c1CCO`, for which the TGI in the test with A549 NSCLC, with COLO 205 colon, with HOP-62 NSCLC, in the test with LOX IMVI melanoma, in the test with MALME-3M melanoma and in the test on NCI/ADR-RES ovarian was more than 10 µM in each case. In addition, the TGI with RXF 393 renal, in the test with SF-539 CNS and in the test with T-47D breast was more than 10 µM each time.
As to `COc1ccc(C2C3CCCC(C3=O)C(c3ccc(OC)cc3)N2N=O)cc1` (stereo not given), the TGI in the test on A549 NSCLC is more than 88.2 µM; in the test with COLO 205 colon it was 42.3 µM; with HOP-62 NSCLC it was more than 86.5 µM; in the test with LOX IMVI melanoma it was 32.5 µM; with MALME-3M melanoma it was 20 µM; in the test on NCI/ADR-RES ovarian, more than 87.2 µM. The TGI in the test on RXF 393 renal came to 41.1 µM; in the test with UACC-257 melanoma, 82.7 µM.
With `O=C(NCCNc1nccc(-c2c(-c3cccc(O)c3)nc3sccn23)n1)c1ccccc1`, the GI50 in the test on A549 NSCLC is 9.21 µM; with COLO 205 colon it was 3.99 µM; in the test with HOP-62 NSCLC it was 23.5 µM; with LOX IMVI melanoma it was 3.22 µM; in the test with NCI/ADR-RES ovarian, 34.8 µM; with RXF 393 renal, 4.14 µM. The figures for the GI50 in the test on SF-539 CNS, in the test on T-47D breast and with UACC-257 melanoma were 11.3 µM, 11 µM and 0.489 µM, respectively. In addition, the TGI with A549 NSCLC is 46.5 µM; in the test on COLO 205 colon, 23.8 µM; with HOP-62 NSCLC, 94.2 µM; in the test on LOX IMVI melanoma, 17.8 µM; with NCI/ADR-RES ovarian, more than 100 µM; in the test on RXF 393 renal, 22.2 µM. Further, the TGI worked out at 36.8 µM in the test with SF-539 CNS, 49 µM in the test on T-47D breast and 18.5 µM with UACC-257 melanoma.
`COc1ccc(N2C(=O)C3c4[nH]c5ccc(F)cc5c4C4CCC(C(C)(C)C)CC4C3C2=O)cc1` (stereo not given): the TGI with A549 NSCLC, with COLO 205 colon, in the test on HOP-62 NSCLC, in the test with MALME-3M melanoma, in the test with NCI/ADR-RES ovarian and with RXF 393 renal was more than 10 µM throughout. The TGI with SF-539 CNS and with T-47D breast was more than 10 µM throughout.
In the case of `CCOC(=O)Cc1cnc(NC(NC(=O)CC)(C(F)(F)F)C(F)(F)F)s1`, the TGI with HOP-62 NSCLC, in the test with LOX IMVI melanoma, with MALME-3M melanoma, in the test on RXF 393 renal, in the test with SF-539 CNS and in the test on T-47D breast was more than 100 µM each time. In the test with UACC-257 melanoma, this compound returned a TGI of more than 100 µM.
